{
  "source": "ChEMBL document CHEMBL4834480",
  "about": "“Discovery of 3,5-Dimethyl-4-Sulfonyl-1H-Pyrrole-Based Myeloid Cell Leukemia 1 Inhibitors with High Affinity, Selectivity, and Oral Bioavailability” (J Med Chem, 2021)",
  "key": {"[1]": {"target": "T1, Bcl-2-related protein A1 (Homo sapiens, UniProt Q16548)", "T1 sequence (Q16548 whole entry)": "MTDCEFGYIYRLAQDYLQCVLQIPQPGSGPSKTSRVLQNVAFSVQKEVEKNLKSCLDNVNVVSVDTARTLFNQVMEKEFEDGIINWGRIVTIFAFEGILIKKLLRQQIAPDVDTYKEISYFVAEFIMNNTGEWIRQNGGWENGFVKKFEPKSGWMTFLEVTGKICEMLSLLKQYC", "test": "Binding affinity to human partial length BCL2A1 (M1 to G153 residues) expressed in bacterial expression system by BCL2SCAN assay"}, "[2]": {"target": "CYP2C19 (Homo sapiens, UniProt P33261)", "sequence (P33261 whole entry)": "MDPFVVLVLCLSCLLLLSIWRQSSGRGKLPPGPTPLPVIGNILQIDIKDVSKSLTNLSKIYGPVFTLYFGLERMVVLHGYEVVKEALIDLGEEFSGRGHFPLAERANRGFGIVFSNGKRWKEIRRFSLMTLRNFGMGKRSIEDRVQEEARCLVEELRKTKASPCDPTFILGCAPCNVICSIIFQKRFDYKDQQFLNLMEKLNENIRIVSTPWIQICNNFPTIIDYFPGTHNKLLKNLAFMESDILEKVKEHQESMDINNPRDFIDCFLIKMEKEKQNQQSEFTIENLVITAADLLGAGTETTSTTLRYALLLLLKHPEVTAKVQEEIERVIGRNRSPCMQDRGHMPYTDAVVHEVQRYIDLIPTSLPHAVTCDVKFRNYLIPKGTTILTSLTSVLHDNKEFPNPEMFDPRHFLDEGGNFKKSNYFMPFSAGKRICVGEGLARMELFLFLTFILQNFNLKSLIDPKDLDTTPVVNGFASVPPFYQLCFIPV", "test": "Inhibition of CYP2C19 (unknown origin) at 10 uM preincubated for 5 min followed by NADPH addition and measured after 20 mins by LC-MS/MS analysis relative to control", "type": "ADME", "conditions": "time 25 min"}, "[3]": {"test": "Half life in rat liver microsomes", "type": "ADME, Microsome"}, "[4]": {"test": "Stability in human liver microsomes assessed as parent compound remaining preincubated for 5 mins followed by NADPH addition and measured after 30 mins by LC-MS/MS analysis", "type": "ADME, Microsome", "conditions": "time 35 min, read-out: Stabilty"}, "[5]": {"test": "AUCt in Sprague-Dawley rat at 3 mg/kg, iv measured up to 24 hrs by LC-MS/MS analysis", "type": "ADME, organism-based", "parameters": "route intravenous, dose 3 mg/kg, time <=24", "conditions": "in vivo"}, "[6]": {"test_system": "MV4-11", "test": "Antitumor activity against human MV4-11 cells xenografted in BALB/c nude mouse assessed as tumor growth inhibition by measuring T/C ratio at 60 mg/kg, po administered every two days for 14 days relative to control", "type": "functional", "conditions": "time 14 day"}, "[7]": {"test": "Toxicity in BALB/c nude mouse xenografted with human MV4-11 cells assessed as effect on liver weight at 20 mg/kg, ip administered every two days for 14 days", "type": "organism-based", "conditions": "in vivo, 336 h, time 14 day"}, "[8]": {"test": "Toxicity in BALB/c nude mouse xenografted with human MV4-11 cells assessed as effect on kidney weight at 60 mg/kg, po administered every two days for 14 days", "type": "organism-based", "conditions": "in vivo, 336 h, time 14 day"}, "[9]": {"test": "Toxicity in BALB/c nude mouse xenografted with human MV4-11 cells assessed as effect on heart at 60 mg/kg, po administered every two days for 14 days by hematoxyin-eosin staining based analysis", "type": "organism-based", "conditions": "in vivo, 336 h, time 14 day"}},
  "data": [
    {"smiles": "CC(=O)c1ccc(S(=O)(=O)c2c(C)c(C(=O)O)n(CCCOc3cc(C)c(Cl)c(C)c3)c2C)cc1", "values": [
      {"measurement": "Kd", "setting": "[1]", "result": "> 10", "unit": "µM"},
      {"measurement": "inhibition at 20 min, 10 µM", "setting": "[2]", "result": 2.85, "unit": "%"},
      {"measurement": "half-life", "setting": "[3]", "result": 45, "unit": "min"},
      {"measurement": "remaining at 0.5 h", "setting": "[4]", "result": 64, "unit": "%"},
      {"measurement": "AUC(0-t) at 24 h", "setting": "[5]", "result": 3290, "unit": "ng·h/mL"},
      {"measurement": "T/C", "setting": "[6]", "result": 37.3, "unit": "%"},
      {"measurement": "Activity", "setting": "[7]", "result": "Non-Toxic"},
      {"measurement": "Activity", "setting": "[8]", "result": "Non-Toxic"},
      {"measurement": "Activity", "setting": "[9]", "result": "Non-Toxic"}
    ]}
  ]
}
